# Measured values from ChEMBL document CHEMBL3352501, “SAR analysis of new anti-TB drugs currently in pre-clinical and clinical development” (Eur J Med Chem, 2014).
# Legend:
# [1] = tested on: Mycobacterium tuberculosis; test: Antitubercular activity against Mycobacterium tuberculosis H37Rv assessed as growth inhibition; assay type: functional
# [2] = tested on: Mycobacterium tuberculosis; test: Antitubercular activity against Mycobacterium tuberculosis assessed as growth inhibition; assay type: functional
# [3] = tested on: Mycobacterium tuberculosis; test: Antitubercular activity against XDR clinical isolates Mycobacterium tuberculosis […] assessed as growth inhibition in presence of […] clavulanate; assay type: functional
# [4] = tested on: Mycolicibacterium smegmatis; test: Antimicrobial activity against Mycobacterium smegmatis assessed as intracellular bacterial killing; assay type: functional
# [5] = tested on: Mycobacterium tuberculosis; test: Antitubercular activity against Mycobacterium tuberculosis infected in mouse J774A.1 assessed as reduction in bacterial count; assay type: functional
# [6] = tested on: Mycobacterium tuberculosis; test: Antitubercular activity against Mycobacterium tuberculosis H37Rv assessed as growth inhibition in presence of […] clavulanate; assay type: functional
# [7] = tested on: Mycolicibacterium smegmatis; test: Antimicrobial activity against Mycobacterium smegmatis; assay type: functional
# [8] = tested on: Mycobacterium tuberculosis; test: Antitubercular activity against Mycobacterium tuberculosis infected in mouse assessed as reduction in colony formation at 20 mg/kg for 20 days; assay type: functional
# Mycobacterium avium = test: Antimycobacterial activity against Mycobacterium avium assessed as growth inhibition; assay type: functional
# [9] = Oral bioavailability in dog; assay type: ADME, organism-based, Canis lupus familiaris; conditions: in vivo
# [10] = tested on: Mycobacterium tuberculosis; test: Antitubercular activity against drug-susceptible Mycobacterium tuberculosis clinical isolates assessed as growth inhibition; assay type: functional
# [11] = tested on: Mycobacterium tuberculosis; test: Antitubercular activity against Mycobacterium tuberculosis assessed as growth inhibition by alamar blue assay; assay type: functional
structure (smiles),measurement,setting,value
O=c1nc(N2CCN(CCCCc3ccccc3)CC2)sc2c([N+](=O)[O-])cc(C(F)(F)F)cc12,MIC,[1],0.00019 µg/mL
COc1c(N2CC3(CC3)[C@](C)(N)C2)c(F)cc2c(=O)c(C(=O)O)cn([C@@H]3C[C@@H]3F)c12,MIC90,[2],0.06 µg/mL
O=c1nc(N2CCN(CCCCOc3ccccc3)CC2)sc2c([N+](=O)[O-])cc(C(F)(F)F)cc12,MIC,[1],0.00019 µg/mL
O=c1nc(N2CCN(CCC3CCCCC3)CC2)sc2c([N+](=O)[O-])cc(C(F)(F)F)cc12,MIC,[1],0.00019 µg/mL
CCc1nc2ccc(Cl)cn2c1C(=O)NCc1ccc(N2CCC(c3ccc(OC(F)(F)F)cc3)CC2)cc1 [TELACEBEC],MIC,[1],2.7 nM
same,MIC90,[3],< 0.43 nM
O=C([C@@H](O)CO)N1CC=C(c2c(F)cc(N3C[C@H](COc4ccon4)OC3=O)cc2F)CC1 [POSIZOLID],MIC,[1],1 µg/mL
CO[C@H]1/C=C/O[C@@]2(C)Oc3c(C)c(O)c4c(O)c(c(/C=N/N5CCN(C)CC5)c(O)c4c3C2=O)NC(=O)/C(C)=C\C=C\[C@H](C)[C@H](O)[C@@H](C)[C@@H](O)[C@@H](C)[C@H](OC(C)=O)[C@@H]1C [RIFAMPIN],MIC,[4],< 1 µg/mL
CC1(C)S[C@@H]2[C@H](NC(=O)[C@H](N)c3ccc(O)cc3)C(=O)N2[C@H]1C(=O)O [AMOXICILLIN],fold change (FC),[5],1.5
same,MIC,[3],0.23 µg/mL
same,MIC,[6],0.32 µg/mL
O=c1nc(N2CCN(CC3CCCCC3)CC2)sc2c([N+](=O)[O-])cc(C(F)(F)F)cc12 [MACOZINONE],MIC,[1],0.00019 µg/mL
CCCCCCCN1CCN(c2nc(=O)c3cc(C(F)(F)F)cc([N+](=O)[O-])c3s2)CC1,MIC,[1],0.00019 µg/mL
O=[N+]([O-])c1cn2c(n1)OC[C@@H](OCc1ccc(OC(F)(F)F)cc1)C2 [PRETOMANID],MIC,[1],0.13 µg/mL
C[C@@]1(COc2ccc(N3CCC(Oc4ccc(OC(F)(F)F)cc4)CC3)cc2)Cn2c([N+](=O)[O-])cnc2O1,MIC,[1],0.012 µg/mL
C[C@H]1COC2(CCN(c3nc(=O)c4cc(C(F)(F)F)cc([N+](=O)[O-])c4s3)CC2)O1 [BTZ-043],MIC,[1],0.001 µg/mL
same,MIC,[4],< 0.01 µg/mL
same,MIC,[7],0.004 µg/mL
COc1ncccc1Nc1cc2nc3ccccc3n(-c3ccc(OC(F)(F)F)cc3)c-2c/c1=N\C1CCC(OC)CC1 (stereo not drawn),MIC,[1],> 25 µg/mL
same,log10cfu,[8],4.66
CC(=O)NC[C@H]1CN(c2ccc(N3CCSCC3)c(F)c2)C(=O)O1 [SUTEZOLID],MIC,[2],0.125 µg/mL
CC(=O)NC[C@H]1CN(c2ccc(N3CCOCC3)c(F)c2)C(=O)O1 [LINEZOLID],MIC,[2],< 1 µg/mL
CO[C@H]1/C=C/O[C@@]2(C)Oc3c(C)c(O)c4c(c3C2=O)C2=NC3(CCN(CC(C)C)CC3)NC2=C(NC(=O)/C(C)=C\C=C\[C@H](C)[C@H](O)[C@@H](C)[C@@H](O)[C@@H](C)[C@H](OC(C)=O)[C@@H]1C)C4=O [RIFABUTIN],MIC,[1],0.015 µg/mL
same,MIC,Mycobacterium avium,0.06 µg/mL
CC(C)/N=c1\cc2n(-c3ccc(Cl)cc3)c3ccccc3nc-2cc1Nc1ccc(Cl)cc1 [CLOFAZIMINE],MIC,[1],1.21 µg/mL
same,MIC,[2],0.12 µg/mL
same,log10cfu,[8],6.33
CC(C)=CCC/C(C)=C/CNCCNC1C2CC3CC(C2)CC1C3 (stereo not drawn) [SQ109],bioavailability,[9],2.4%
same,MIC,[10],0.2 µg/mL
NNC(=O)c1ccncc1 [ISONIAZID],MIC,[4],0.1 µg/mL
COc1nc2ccc(Br)cc2cc1[C@@H](c1ccccc1)[C@@](O)(CCN(C)C)c1cccc2ccccc12 [BEDAQUILINE],MBC90,[11],2 µg/mL
same,WCC90,[11],1 µg/mL
same,MIC,[10],0.002 µg/mL
